Experimental data from PubChem BioAssay (NCI).
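Where inhibition never reached the appropriate level, the endpoint shown equals the highest concentration tested. Otherwise, values were interpolated linearly from a five-concentration, 48-hour dose response in 96-well plates. GI50 = concentration required for 50% inhibition of growth. The concentration for full growth arrest is given as TGI.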

Key:
Assay in all cases: inhibition of tumour cell growth, NCI panel, 48 h
NCI-H23 lung = tested on: NCI-H23 lung
UACC-62 melanoma = tested on: UACC-62 melanoma
HOP-62 NSCLC = tested on: HOP-62 NSCLC
U251 CNS = tested on: U251 CNS
UO-31 renal = tested on: UO-31 renal
SK-MEL-28 melanoma = tested on: SK-MEL-28 melanoma
HT29 colon = tested on: HT29 colon
PC-3 prostate = tested on: PC-3 prostate
IGROV1 ovarian = tested on: IGROV1 ovarian
SF-539 CNS = tested on: SF-539 CNS
OVCAR-5 ovarian = tested on: OVCAR-5 ovarian
DU-145 prostate = tested on: DU-145 prostate
MCF7 breast = tested on: MCF7 breast
COLO 205 colon = tested on: COLO 205 colon
OVCAR-4 ovarian = tested on: OVCAR-4 ovarian
M14 melanoma = tested on: M14 melanoma
UACC-257 melanoma = tested on: UACC-257 melanoma
SK-MEL-5 melanoma = tested on: SK-MEL-5 melanoma
OVCAR-3 ovarian = tested on: OVCAR-3 ovarian
RXF 393 renal = tested on: RXF 393 renal
T-47D breast = tested on: T-47D breast
NCI-H226 lung = tested on: NCI-H226 lung
SK-MEL-2 melanoma = tested on: SK-MEL-2 melanoma
MDA-MB-435 = tested on: MDA-MB-435
OVCAR-8 ovarian = tested on: OVCAR-8 ovarian
HCC-2998 colon = tested on: HCC-2998 colon
LOX IMVI melanoma = tested on: LOX IMVI melanoma
BT-549 breast = tested on: BT-549 breast
NCI-H460 lung = tested on: NCI-H460 lung
K-562 leukemia = tested on: K-562 leukemia
CCRF-CEM leukemia = tested on: CCRF-CEM leukemia
KM12 colon = tested on: KM12 colon
SF-268 CNS = tested on: SF-268 CNS
SNB-75 CNS = tested on: SNB-75 CNS
RPMI-8226 leukemia = tested on: RPMI-8226 leukemia
HS 578T breast = tested on: HS 578T breast
CAKI-1 renal = tested on: CAKI-1 renal
A498 renal = tested on: A498 renal
786-0 renal = tested on: 786-0 renal
HCT-15 colon = tested on: HCT-15 colon
SK-OV-3 ovarian = tested on: SK-OV-3 ovarian
TK-10 renal = tested on: TK-10 renal
ACHN renal = tested on: ACHN renal
MDA-MB-231 breast = tested on: MDA-MB-231 breast
SN12C renal = tested on: SN12C renal
MDA-MB-468 breast = tested on: MDA-MB-468 breast
HCT-116 colon = tested on: HCT-116 colon
SR leukemia = tested on: SR leukemia
MOLT-4 leukemia = tested on: MOLT-4 leukemia
HOP-92 NSCLC = tested on: HOP-92 NSCLC
EKVX NSCLC = tested on: EKVX NSCLC
NCI-H522 lung = tested on: NCI-H522 lung
SF-295 CNS = tested on: SF-295 CNS
SNB-19 CNS = tested on: SNB-19 CNS
HL-60(TB) leukemia = tested on: HL-60(TB) leukemia
A549 NSCLC = tested on: A549 NSCLC
SW-620 colon = tested on: SW-620 colon
MALME-3M melanoma = tested on: MALME-3M melanoma

SMILES: COc1cc(C2C(C(=O)OCc3ccccc3)=C(C)Nc3nc4ccccc4n32)cc(OC)c1OC (stereo unspecified)
- GI50 (NCI-H23 lung): 7 µM
- TGI (NCI-H23 lung): 29 µM
- GI50 (UACC-62 melanoma): 2.15 µM
- TGI (UACC-62 melanoma): 8.07 µM
- GI50 (HOP-62 NSCLC): 2.75 µM
- TGI (HOP-62 NSCLC): 9.15 µM
- GI50 (U251 CNS): 3.25 µM
- TGI (U251 CNS): 11.3 µM
- GI50 (UO-31 renal): 2.11 µM
- TGI (UO-31 renal): 5.27 µM
- GI50 (SK-MEL-28 melanoma): 5.46 µM
- TGI (SK-MEL-28 melanoma): 59 µM
- GI50 (HT29 colon): 4.35 µM
- TGI (HT29 colon): 22.3 µM
- GI50 (PC-3 prostate): 6.63 µM
- TGI (PC-3 prostate): > 100 µM
- GI50 (IGROV1 ovarian): 4.42 µM
- TGI (IGROV1 ovarian): 30.5 µM
- GI50 (SF-539 CNS): 1.98 µM
- TGI (SF-539 CNS): 4.37 µM
- GI50 (OVCAR-5 ovarian): 7.88 µM
- TGI (OVCAR-5 ovarian): 38.3 µM
- GI50 (DU-145 prostate): 7.06 µM
- TGI (DU-145 prostate): 55.8 µM
- GI50 (MCF7 breast): 3.56 µM
- TGI (MCF7 breast): 17.8 µM
- GI50 (COLO 205 colon): 12.5 µM
- TGI (COLO 205 colon): > 100 µM
- GI50 (OVCAR-4 ovarian): 2.41 µM
- TGI (OVCAR-4 ovarian): 7.87 µM
- GI50 (M14 melanoma): 6.01 µM
- TGI (M14 melanoma): 71 µM
- GI50 (UACC-257 melanoma): 11.2 µM
- TGI (UACC-257 melanoma): 66.3 µM
- GI50 (SK-MEL-5 melanoma): 4.41 µM
- TGI (SK-MEL-5 melanoma): 19.5 µM
- GI50 (OVCAR-3 ovarian): 2.67 µM
- TGI (OVCAR-3 ovarian): 7.56 µM
- GI50 (RXF 393 renal): 1.4 µM
- TGI (RXF 393 renal): 4.71 µM
- GI50 (T-47D breast): 3.15 µM
- TGI (T-47D breast): 14.5 µM
- GI50 (NCI-H226 lung): 2.19 µM
- TGI (NCI-H226 lung): 6.81 µM
- GI50 (SK-MEL-2 melanoma): 2.61 µM
- TGI (SK-MEL-2 melanoma): 7.76 µM
- GI50 (MDA-MB-435): 2.26 µM
- TGI (MDA-MB-435): 6.25 µM
- GI50 (OVCAR-8 ovarian): 3.73 µM
- TGI (OVCAR-8 ovarian): 14.4 µM
- GI50 (HCC-2998 colon): 14.4 µM
- TGI (HCC-2998 colon): > 100 µM
- GI50 (LOX IMVI melanoma): 3.43 µM
- TGI (LOX IMVI melanoma): 12.9 µM
- GI50 (BT-549 breast): 4.09 µM
- TGI (BT-549 breast): 18.1 µM
- GI50 (NCI-H460 lung): 3.87 µM
- TGI (NCI-H460 lung): 19.6 µM
- GI50 (K-562 leukemia): 3.38 µM
- TGI (K-562 leukemia): > 100 µM
- GI50 (CCRF-CEM leukemia): 7.01 µM
- TGI (CCRF-CEM leukemia): > 100 µM
- GI50 (KM12 colon): 3.75 µM
- TGI (KM12 colon): 27.4 µM
- GI50 (SF-268 CNS): 3.22 µM
- TGI (SF-268 CNS): 19 µM
- GI50 (SNB-75 CNS): 1 µM
- TGI (SNB-75 CNS): 3.22 µM
- GI50 (RPMI-8226 leukemia): 6.96 µM
- TGI (RPMI-8226 leukemia): > 100 µM
- GI50 (HS 578T breast): 2.25 µM
- TGI (HS 578T breast): 7.65 µM
- GI50 (CAKI-1 renal): 2.45 µM
- TGI (CAKI-1 renal): 11.4 µM
- GI50 (A498 renal): 1.88 µM
- TGI (A498 renal): 4.37 µM
- GI50 (786-0 renal): 1.8 µM
- TGI (786-0 renal): 3.56 µM
- GI50 (HCT-15 colon): 5.91 µM
- TGI (HCT-15 colon): > 100 µM
- GI50 (SK-OV-3 ovarian): 2.46 µM
- TGI (SK-OV-3 ovarian): 5.86 µM
- GI50 (TK-10 renal): 2.15 µM
- TGI (TK-10 renal): 5.4 µM
- GI50 (ACHN renal): 2.97 µM
- TGI (ACHN renal): 9.01 µM
- GI50 (MDA-MB-231 breast): 1.97 µM
- TGI (MDA-MB-231 breast): 4.68 µM
- GI50 (SN12C renal): 3.3 µM
- TGI (SN12C renal): 21.2 µM
- GI50 (MDA-MB-468 breast): 2.11 µM
- TGI (MDA-MB-468 breast): 5.83 µM
- GI50 (HCT-116 colon): 3.25 µM
- TGI (HCT-116 colon): 10.5 µM
- GI50 (SR leukemia): 3.93 µM
- TGI (SR leukemia): > 100 µM
- GI50 (MOLT-4 leukemia): 11.3 µM
- TGI (MOLT-4 leukemia): > 100 µM
- GI50 (HOP-92 NSCLC): 2.12 µM
- TGI (HOP-92 NSCLC): 6.61 µM
- GI50 (EKVX NSCLC): 10.8 µM
- TGI (EKVX NSCLC): 56.2 µM
- GI50 (NCI-H522 lung): 2.64 µM
- TGI (NCI-H522 lung): 10.3 µM
- GI50 (SF-295 CNS): 3.35 µM
- TGI (SF-295 CNS): 13.2 µM
- GI50 (SNB-19 CNS): 3.65 µM
- TGI (SNB-19 CNS): 15.8 µM
- GI50 (HL-60(TB) leukemia): 7.02 µM
- TGI (HL-60(TB) leukemia): 76.7 µM
- GI50 (A549 NSCLC): 3.28 µM
- TGI (A549 NSCLC): 11.4 µM
- GI50 (SW-620 colon): 6.23 µM
- TGI (SW-620 colon): > 100 µM
- GI50 (MALME-3M melanoma): 1.74 µM
- TGI (MALME-3M melanoma): 5.71 µM
